Laboratory results taken from ChEMBL document CHEMBL4219247, “Inhibitors of dihydrofolate reductase as antitumor agents: design, synthesis and biological evaluation of a series of novel nonclassical 6-substituted pyrido[3,2-d]pyrimidines with a three- to five-carbon bridge” (Bioorg Med Chem, 2018).
pIC50: −log10 of the molar value.

Columns and labels:
[1] = tested on: HL-60; test: Antiproliferative activity against human HL60 cells after 48 hrs by MTS assay; assay type: functional, cell-based; conditions: HL-60, 48 h
[2] = tested on: HCT-116; test: Antiproliferative activity against human HCT116 cells after 48 hrs by MTS assay; assay type: functional, cell-based; conditions: HCT-116, 48 h
[3] = molecular target: T1, Dihydrofolate reductase (Homo sapiens, UniProt P00374); test: Inhibition of recombinant human DHFR using dihydrofolate as substrate after 15 mins in presence of NADPH
T1 sequence (P00374 whole entry): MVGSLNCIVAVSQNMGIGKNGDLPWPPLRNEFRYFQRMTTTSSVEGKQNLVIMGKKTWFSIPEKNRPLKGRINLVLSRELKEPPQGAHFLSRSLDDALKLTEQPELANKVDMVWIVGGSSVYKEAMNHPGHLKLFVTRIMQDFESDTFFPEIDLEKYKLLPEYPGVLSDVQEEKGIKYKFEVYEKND

[4] = tested on: HeLa; test: Antiproliferative activity against human HeLa cells after 48 hrs by MTS assay
[5] = tested on: HL-60; test: Cell cycle arrest in human HL60 cells assessed as accumulation at G1 phase at 4 uM after 24 hrs by propidium iodide staining based flow cytometry (reference value: 28.69%); assay type: functional
[6] = tested on: HL-60; test: Upregulation of DHFR protein level in human HL60 cells after 48 hrs by Western blot method; assay type: functional, cell-based
[7] = tested on: HL-60; test: Induction of apoptosis in human HL60 cells assessed as necrotic cells at 0.1 uM after 24 hrs by Annexin V-FITC/propidium iodide staining based flow cytometry (reference value: 2.36%); assay type: functional
[8] = tested on: HL-60; test: Induction of apoptosis in human HL60 cells assessed as late apoptotic cells at 0.2 uM after 24 hrs by Annexin V-FITC/propidium iodide staining based flow cytometry (reference value: 4.84%); assay type: functional
[9] = tested on: HL-60; test: Upregulation of DHFR protein level in human HL60 cells at 0.25 uM after 48 hrs by Western blot method relative to control; assay type: functional
[10] = tested on: HL-60; test: Induction of apoptosis in human HL60 cells assessed as early apoptotic cells at 0.1 uM after 24 hrs by Annexin V-FITC/propidium iodide staining based flow cytometry (reference value: 2.09%); assay type: functional
[11] = tested on: HL-60; test: Induction of apoptosis in human HL60 cells assessed as early apoptotic cells at 0.2 uM after 24 hrs by Annexin V-FITC/propidium iodide staining based flow cytometry (reference value: 2.09%); assay type: functional
[12] = tested on: HL-60; test: Induction of apoptosis in human HL60 cells assessed as necrotic cells at 0.2 uM after 24 hrs by Annexin V-FITC/propidium iodide staining based flow cytometry (reference value: 2.36%); assay type: functional
[13] = tested on: HL-60; test: Induction of apoptosis in human HL60 cells assessed as live cells at 0.1 uM after 24 hrs by Annexin V-FITC/propidium iodide staining based flow cytometry (reference value: 90.7%); assay type: functional
[14] = tested on: HL-60; test: Cell cycle arrest in human HL60 cells assessed as accumulation at G2 phase at 4 uM after 24 hrs by propidium iodide staining based flow cytometry (reference value: 13.56%); assay type: functional
[15] = tested on: HL-60; test: Induction of apoptosis in human HL60 cells assessed as live cells at 0.2 uM after 24 hrs by Annexin V-FITC/propidium iodide staining based flow cytometry (reference value: 90.7%); assay type: functional
[16] = tested on: HL-60; test: Cell cycle arrest in human HL60 cells assessed as accumulation at S phase at 1 uM after 24 hrs by propidium iodide staining based flow cytometry (reference value: 57.76%); assay type: functional
[17] = tested on: HL-60; test: Cell cycle arrest in human HL60 cells assessed as accumulation at S phase at 4 uM after 24 hrs by propidium iodide staining based flow cytometry (reference value: 57.76%); assay type: functional
[18] = tested on: HL-60; test: Upregulation of DHFR protein level in human HL60 cells at 0.125 uM after 48 hrs by Western blot method relative to control; assay type: functional
[19] = tested on: HL-60; test: Induction of apoptosis in human HL60 cells assessed as late apoptotic cells at 0.1 uM after 24 hrs by Annexin V-FITC/propidium iodide staining based flow cytometry (reference value: 4.84%); assay type: functional
[20] = tested on: HL-60; test: Upregulation of DHFR protein level in human HL60 cells at 0.5 uM after 48 hrs by Western blot method relative to control; assay type: functional
[21] = tested on: HL-60; test: Cell cycle arrest in human HL60 cells assessed as accumulation at G1 phase at 1 uM after 24 hrs by propidium iodide staining based flow cytometry (reference value: 28.69%); assay type: functional
[22] = tested on: HL-60; test: Cell cycle arrest in human HL60 cells assessed as accumulation at G2 phase at 1 uM after 24 hrs by propidium iodide staining based flow cytometry (reference value: 13.56%); assay type: functional

SMILES | pIC50 [1] | pIC50 [2] | pIC50 [3] | pIC50 [4] | other results
CN(Cc1cnc2nc(N)nc(N)c2n1)c1ccc(C(=O)N[C@@H](CCC(=O)O)C(=O)O)cc1 [METHOTREXATE] | 7.60 | 6.89 |  |  | 
Nc1nc(N)c2nc(CCC(O)c3ccccc3)ccc2n1 (stereo not drawn) | 5.82 | 4.76 | 5.56 | 4.13 | 
Nc1nc(N)c2nc(CCCCc3ccccc3)ccc2n1 | 6.23 | 4.96 | 6.21 | 4.33 | 
Nc1nc(N)c2nc(CCCCCc3ccccc3)ccc2n1 | 6.11 | 4.93 | 6.15 | 4.39 | 
Nc1nc(N)c2nc(CCCc3ccccc3)ccc2n1 | 6.70 | 5.02 | 7.22 | 4.31 | Activity [5]: 19.34%; Activity [6]: Dose-dependent effect; Activity [7]: 2.21%; Activity [8]: 11.06%; fold change (FC) [9]: 1.62; Activity [10]: 3.45%; Activity [11]: 6.63%; Activity [12]: 5.96%; Activity [13]: 87.64%; Activity [14]: 0%; Activity [15]: 76.35%; Activity [16]: 62.39%; Activity [17]: 80.66%; fold change (FC) [18]: 1.03; Activity [19]: 6.69%; fold change (FC) [20]: 1.98; Activity [21]: 24.26%; Activity [22]: 13.35%
Nc1nc(N)c2nc(CCC(O)CCc3ccccc3)ccc2n1 (stereo not drawn) | 5.91 | 4.69 | 5.60 | 4.19 | 
Nc1nc(N)c2nc(/C=C/CCCc3ccccc3)ccc2n1 | 5.88 | 4.81 | 5.68 | 4.76 | 
Nc1nc(N)c2nc(CCC(=O)CCc3ccccc3)ccc2n1 | 5.43 | 4.48 | 5.10 | 4.11 | 

Now from value to compound, other results behind:

pIC50 [1] | pIC50 [2] | pIC50 [3] | pIC50 [4] | SMILES | other results
6.46 | 4.88 | 6.23 | 4.60 | Nc1nc(N)c2nc(/C=C/Cc3ccccc3)ccc2n1 | 
5.82 | 4.99 | < 4.00 | 5.48 | Nc1nc(N)c2nc(/C=C/C(=O)c3ccccc3)ccc2n1 | 
5.97 | 4.92 | 4.15 | 5.43 | Nc1nc(N)c2nc(/C=C/C(=O)/C=C/c3ccccc3)ccc2n1 | 
5.09 | 4.68 | 4.95 | 4.07 | Nc1nc(N)c2nc(CCC(=O)c3ccccc3)ccc2n1 | 
5.17 | 4.75 | 4.91 | 4.83 | Nc1nc(N)c2nc(/C=C/C=C/c3ccccc3)ccc2n1 | 
